Laboratory results as given in US20230357240A1, “NOVEL N-HETEROCYCLIC BET BROMODOMAIN INHIBITOR, AND PREPARATION METHOD THEREOF AND MEDICAL USE THEREOF” (Chengdu Easton Biopharmaceuticals Co., Ltd., priority 2020, published 2023).
Read-outs that look alike come from different tables or passages of the source.

How the values were obtained:
Format in all cases: cell-based
[1] = system: MV4-11 cell; assay: MV4-11 cell proliferation experiment (CCK-8 cell viability); conditions: Homo sapiens, MV4-11 cells, 72-hour culture
Method: EXAMPLE 9 Cell Experiment (MV4-11 Cell Proliferation Experiment)
Determination of Cell Viability with CCK-8 Reagent
(1) MV4-11 cell suspension was pipetted from a culture flask into a 15 mL centrifuge tube, and the cell suspension was centrifuged at 1000 rpm for 4 minutes.
(2) A supernatant in the centrifuge tube was discarded, and an appropriate amount of fresh complete medium (IMDM+10% FBS+1% P/S) was added to resuspend the cells. 20 μL of cell suspension was collected, 20 μL of trypan blue was added, and CounterStar was used for counting.
(3) A required cell suspension volume and complete medium volume were calculated according to viable cell density and the required number of plated cells. MV4-11 cells were plated at a density of 1*10^4 cells/well in 100 μL/well.
(4) 100 μL of the above cell suspension was pipetted into a 96-well plate by using an electric pipette. 150 μL of complete medium was added to blank control wells. PBS was added to peripheral wells of the 96-well plate, to avoid liquid evaporation. The 96-well plate was cultured overnight in an incubator.
Day 2: Compound Preparation:
(1) The compound of the present application dissolved in DMSO and the positive control substance ABBV-744 were fetched, and subjected to serial dilution (dilution in column A, column B, . . . , column J sequentially from left to right in a 96-well PCR plate).
An initial concentration of the solution in column A is 10 mM;
Column B: 2 μL of the solution in column A was diluted with 8 μL of DMSO to obtain a final concentration of 2000 μM;
Column C: 2 μL of the solution in column B was diluted with 8 μL of DMSO to obtain a final concentration of 400 μM;
Column D: 2 μL of the solution in column C was diluted with 8 μL of DMSO to obtain a final concentration of 80 μM;
Column E: 2 μL of the solution in column D was diluted with 8 μL of DMSO to obtain a final concentration of 16 μM;
Column F: 2 μL of the solution in column E was diluted with 8 μL of DMSO to obtain a final concentration of 3.2 μM;
Column G: 2 μL of the solution in column F was diluted with 8 μL of DMSO to obtain a final concentration of 0.64 μM;
Column H: 2 μL of the solution in column G was diluted with 8 μL of DMSO to obtain a final concentration of 0.128 μM;
Column I: 2 μL of the solution in column H was diluted with 8 μL of DMSO to obtain a final concentration of 0.0256 μM; and
Column J: 2 μL of the solution in column I was diluted with 8 μL of DMSO to obtain a final concentration of 0.00512 μM.
The suspension was centrifuged for 1 minute at 1000 rpm by using a low-speed centrifuge.
(2) 3×Compound Preparation: (Diluted in a 96-Well Cell Culture Plate)
3 μL of each of the solutions in columns B to J was pipetted into […] of complete medium by a 10 μL manual pipette to obtain 3×compound solutions with a final concentration of 30000, 6000, 1200, 240, 48, 9.6, 1.92, 0.384 and 0.0768 nM, respectively; and 3 μL of DMSO was pipetted into […] of complete medium as a control. The resulting 96-well cell culture plate was put on an oscillator to be oscillated at 500 rpm for 30 minutes.
(1) The prepared 3×compound solutions with the above concentrations were each pipetted by a manual pipette with its volume set to 50 μL into a corresponding well of the 96-well plate after overnight culture on the first day, and the total culture volume of each well was 150 μL. The final concentrations of the compounds in the 96-well plate were 10 μM, 2 μM, 400 nM, 80 nM, 16 nM, 3.2 nM, 0.64 nM, 0.128 nM and 0.0256 nM, respectively. The resulting 96-well plate was put on an oscillator to be oscillated at 500 rpm for 10 minutes.
(2) The 96-well plate as prepared was put in a CO2 incubator for 72-hour culture.
(1) CCK-8 test solution was pipetted into the 96-well cell culture plate in an amount of 15 μL/well by a pipette with a volume set to 15 μL.
(2) The 96-well plate was put in the CO2 incubator for 4-hour culture. […]

[2] = target: T1, hERG (Homo sapiens, UniProt Q12809); assay: hERG inhibition test, whole-cell patch clamp in HEK293 cells stably expressing the hERG ion channel; conditions: human, HEK293 cells stably expressing the hERG ion channel
T1 construct: expressed in transfected cells; host or cells: HEK293 cells stably expressing hERG
T1 sequence (Q12809 whole entry): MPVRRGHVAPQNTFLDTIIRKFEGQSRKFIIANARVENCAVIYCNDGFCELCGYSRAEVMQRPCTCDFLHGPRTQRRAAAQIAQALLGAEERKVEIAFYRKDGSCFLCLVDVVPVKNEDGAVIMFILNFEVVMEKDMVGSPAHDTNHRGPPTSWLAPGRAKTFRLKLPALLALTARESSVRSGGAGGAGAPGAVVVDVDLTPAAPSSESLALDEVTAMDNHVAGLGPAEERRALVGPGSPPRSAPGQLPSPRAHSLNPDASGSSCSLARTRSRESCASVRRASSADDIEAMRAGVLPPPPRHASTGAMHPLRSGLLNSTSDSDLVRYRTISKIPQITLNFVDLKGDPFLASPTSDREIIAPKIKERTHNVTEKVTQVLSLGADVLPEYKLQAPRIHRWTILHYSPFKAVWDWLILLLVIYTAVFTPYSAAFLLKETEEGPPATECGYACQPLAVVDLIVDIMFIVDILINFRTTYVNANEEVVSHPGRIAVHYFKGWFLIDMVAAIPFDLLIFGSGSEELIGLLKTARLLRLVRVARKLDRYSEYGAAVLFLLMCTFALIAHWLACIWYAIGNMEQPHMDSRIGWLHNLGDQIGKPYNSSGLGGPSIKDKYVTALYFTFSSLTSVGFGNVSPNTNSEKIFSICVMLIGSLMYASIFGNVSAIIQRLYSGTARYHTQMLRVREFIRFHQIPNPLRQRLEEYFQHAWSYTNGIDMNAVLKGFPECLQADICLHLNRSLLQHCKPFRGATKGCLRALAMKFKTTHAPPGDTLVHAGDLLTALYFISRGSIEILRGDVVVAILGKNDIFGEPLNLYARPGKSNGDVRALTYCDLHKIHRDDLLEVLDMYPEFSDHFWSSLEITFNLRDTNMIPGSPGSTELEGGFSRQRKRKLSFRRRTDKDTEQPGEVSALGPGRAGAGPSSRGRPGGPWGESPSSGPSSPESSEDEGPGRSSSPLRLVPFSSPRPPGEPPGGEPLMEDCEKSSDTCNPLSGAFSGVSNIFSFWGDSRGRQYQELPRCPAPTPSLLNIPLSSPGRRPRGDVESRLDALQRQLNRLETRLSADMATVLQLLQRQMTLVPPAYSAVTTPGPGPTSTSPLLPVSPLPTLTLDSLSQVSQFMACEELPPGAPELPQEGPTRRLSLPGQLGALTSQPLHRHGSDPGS
Method: (§1) An hERG current was recorded by the whole-cell patch clamp technique. A suspension of HEK293 cells stably expressing the hERG ion channel was added to a 35 mm culture dish, and the culture dish was put on a stage of an inverted microscope. […] The pulse program was repeated every 15 seconds throughout the whole test. After the current became stable, the administration method of continuous extracellular perfusion from low concentration to high concentration was used, and the perfusion started from low concentration and continued until the drug effect was stable, and then the perfusion of the next concentration was performed.
(§2) After the test, stimulus release and signal acquisition were carried out through PatchMaster software. Graphpad Prism 8.0 was used for further data analysis and curve fitting. Effects of each compound at different concentrations were represented with an inhibition rate of the tail current. Inhibition rate=(peak tail current before administration—peak tail current after administration)/peak tail current before administration x 100%. Half-maximal inhibitory concentration IC50 of the test samples was obtained by the fitting analysis with Hill equation.

[3] = target: T2, hERG ion channel (Homo sapiens, UniProt Q12809); assay: as above; conditions: tail current, Hill equation fit
T2 construct: expressed in transfected cells; host or cells: HEK293 cells stably expressing hERG
T2 sequence (Q12809 whole entry): as above
Method: as §1, §2

[4] = read-out: Average hERG inhibition rate
[5] = read-out: hERG Inhibition rate, Cell 1
[6] = read-out: hERG Inhibition rate, Cell 2

**Q.** How did the IC50 [1] turn out when `CCNC(=O)c1cc2c(-c3sc(C(C)(C)O)cc3N3CCc4ccccc43)cn(C)c(=O)c2[nH]1` [Compound 1, N-ethyl-4-(5-(2-hydroxypropyl-2-yl)-3-(indolin-1-yl)thiophen-2-yl)-6-methyl-7-oxo-6,7-dihydro-1H-pyrrolo[2,3-c]pyridine-2-carboxamide] was run?
**A.** Its IC50 is 0.00198 µM.

**Q.** And the inhibition at 0.37 µM [2, 4]?
**A.** The inhibition at 0.37 µM was 3.89%.

**Q.** And the inhibition at 0.37 µM [2, 5]?
**A.** Its inhibition at 0.37 µM is 0.98%.

**Q.** And the inhibition at 0.37 µM [2, 6]?
**A.** Its inhibition at 0.37 µM is 6.79%.

**Q.** And the inhibition at 1.11 µM [2, 4]?
**A.** The inhibition at 1.11 µM was 4.35%.

**Q.** And the inhibition at 1.11 µM [2, 5]?
**A.** Its inhibition at 1.11 µM is -0.28%.

**Q.** What about the inhibition at 1.11 µM [2, 6] of the same compound?
**A.** Its inhibition at 1.11 µM is 8.97%.

**Q.** What about the inhibition at 3.33 µM [2, 4] of the same compound?
**A.** The inhibition at 3.33 µM was 10.1%.

**Q.** What about the inhibition at 3.33 µM [2, 5] of the same compound?
**A.** The inhibition at 3.33 µM was 2.97%.

**Q.** What about the inhibition at 3.33 µM [2, 6] of the same compound?
**A.** The inhibition at 3.33 µM was 17.3%.

**Q.** What about the inhibition at 10 µM [2, 4] of the same compound?
**A.** The inhibition at 10 µM was 21.6%.

**Q.** What about the inhibition at 10 µM [2, 5] of the same compound?
**A.** The inhibition at 10 µM was 14.6%.

**Q.** And the inhibition at 10 µM [2, 6]?
**A.** The inhibition at 10 µM was 28.6%.

**Q.** What about the inhibition at 30 µM [2, 4] of the same compound?
**A.** Its inhibition at 30 µM is 56.3%.

**Q.** What about the inhibition at 30 µM [2, 5] of the same compound?
**A.** The inhibition at 30 µM was 54.3%.

**Q.** And the inhibition at 30 µM [2, 6]?
**A.** Its inhibition at 30 µM is 58.3%.

**Q.** What about the IC50 [3] of the same compound?
**A.** The IC50 was 26.8 µM.
